Experimental findings from patent publication US20140024123A1, “Aqueous Solution Containing Partial Ras Polypeptide and Method for Screening Inhibitor of Ras Function” (priority 2011, published 2014) are described below.

The subject of experiment [1] is culture cell lines having a mutation in an active form of any one of H-Ras, N-Ras, and K-Ras. Nature of the experiment: Cytological activity verification test: anchorage-independent cell growth (soft agar colony formation). In kind it is cell-based. The settings on record: 0.6% agarose, 37° C., 2 weeks, colonies with diameter of 50 μm or more, relative to compound-free control (100%); FIG. 5. The method, then: The number of appeared colonies each having a size with a diameter of 50 μm or more was measured. For a medium in which each of the culture cell lines was suspended in a system free of each of the compounds, the number of colonies was similarly measured and used as a control (100%). Each of the compounds was evaluated for its inhibitory activity on colony formation (inhibitory activity on anchorage-independent cell growth) by calculating inhibition ratio for colony formation of the compound administration group relative to the control.

Experiment [2] concerns the target T1, human H-Ras polypeptide (amino acid residues 1 to 166) binding to human c-Raf-1 (amino acid residues 51 to 130) (Homo sapiens, UniProt P01112).
T1 construct: a human H-Ras polypeptide (amino acid residues 1 to 166) was used as Ras; GST (N, cleaved yes); made in house; host or cells: Escherichia coli
Nature of the experiment: Biochemical activity verification test: inhibition of Ras-Raf binding (GST-Raf pull-down of GTPγ[35S]-labeled Ras, scintillation counting). Particulars: compound at various concentrations in 10% DMSO; FIG. 4. The source says: In this experimental example, a human H-Ras polypeptide (amino acid residues 1 to 166) was used as Ras, and a GTP analog (GTPγS (Roche Diagnostics)) was used as GTP. Further, human c-Raf-1 (amino acid residues 51 to 130) was used as Raf, a target protein of Ras.
A fused protein of Raf, a target protein of Ras, and glutathione S-transferase (GST) was expressed in Escherichia coli using a vector for GST-fused protein expression (pGEX-6P-1 vector (GE Healthcare)). The expressed GST-Raf-fused protein was immobilized onto an affinity carrier for purification (glutathione Sepharose 4B: resin (GE Healthcare)).
GTPγ[^35S] (Perkin Elmer), one of the GTP analogs, was added to Ras from which a GST tag was cleaved with a protease for GST-fused protein cleavage (PreScission protease (GE Healthcare)) to produce radiolabeled Ras.
The resin in the reaction liquid was washed, and then a complex of the GST-Raf-fused protein and the radiolabeled Ras was eluted by adding glutathione. A radioactivity of the eluate was subjected to scintillation counting, to thereby measure a binding activity of Ras to Raf, and inhibitory activities on Ras-Raf binding with various compounds were evaluated.

T1 sequence (P01112 1-166): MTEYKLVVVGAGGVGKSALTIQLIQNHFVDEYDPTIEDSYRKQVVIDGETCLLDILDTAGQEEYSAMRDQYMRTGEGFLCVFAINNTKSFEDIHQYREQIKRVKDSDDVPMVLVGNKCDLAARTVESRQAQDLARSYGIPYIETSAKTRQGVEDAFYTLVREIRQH

Turning to `Cc1ccc(NC(=S)NNc2c([N+](=O)[O-])cc(C(F)(F)F)cc2[N+](=O)[O-])cc1Cl` [Compound (II)], in experiment [1], the “inhibitory activity on colony formation (anchorage-independent cell growth)” value was “found to have a colony formation inhibition effect on each cell”. For the same compound, the “inhibitory activity on Ras-Raf binding” value in experiment [2] was “found to interact with Ras”.
On the same counts, the results for `O=[N+]([O-])c1ccc(NNC(=S)Nc2ccc(F)cc2)c([N+](=O)[O-])c1` [Compound (III)] are “found to have a colony formation inhibition effect on each cell” and “found to interact with Ras”.
Regarding `O=[N+]([O-])c1cc(C(F)(F)F)cc([N+](=O)[O-])c1NNC(=S)Nc1ccc(F)cc1` [Compound (IV)], the “inhibitory activity on colony formation (anchorage-independent cell growth)” value in experiment [1] was “found to have a colony formation inhibition effect on each cell”. For the same compound, the “inhibitory activity on Ras-Raf binding” value in experiment [2] was “found to interact with Ras”.
